Assay: xn = mol fraction of the nth substance listed
Settings: Liquid, Vibrating tube method

COc1cc2c(cc1O)CC1c3c(cc(O)c(OC)c3-2)CCN1C (stereo not given) [boldine] + CCO
Settings | mass density [kg/m3]
342.88 K, 1000 kPa, x1 = 0.0267 | 802.49
342.88 K, 2000 kPa, x1 = 0.0267 | 803.51
342.88 K, 3000 kPa, x1 = 0.0267 | 804.51
342.88 K, 4000 kPa, x1 = 0.0267 | 805.52
342.88 K, 5000 kPa, x1 = 0.0267 | 806.51
342.88 K, 6000 kPa, x1 = 0.0267 | 807.51
342.88 K, 7000 kPa, x1 = 0.0267 | 808.51
342.88 K, 8000 kPa, x1 = 0.0267 | 809.49
342.88 K, 9000 kPa, x1 = 0.0267 | 810.47
342.88 K, 10000 kPa, x1 = 0.0267 | 811.43
342.88 K, 11000 kPa, x1 = 0.0267 | 812.4
342.88 K, 12000 kPa, x1 = 0.0267 | 813.36
342.88 K, 13000 kPa, x1 = 0.0267 | 814.3
342.88 K, 14000 kPa, x1 = 0.0267 | 815.22
342.88 K, 15000 kPa, x1 = 0.0267 | 816.14
342.88 K, 16000 kPa, x1 = 0.0267 | 817.05
342.88 K, 17000 kPa, x1 = 0.0267 | 817.95
342.88 K, 18000 kPa, x1 = 0.0267 | 818.81
342.88 K, 19000 kPa, x1 = 0.0267 | 819.68
342.88 K, 20000 kPa, x1 = 0.0267 | 820.53
342.9 K, 1000 kPa, x1 = 0.0196 | 790.39
342.9 K, 2000 kPa, x1 = 0.0196 | 791.42
342.9 K, 3000 kPa, x1 = 0.0196 | 792.45
342.9 K, 4000 kPa, x1 = 0.0196 | 793.47
342.9 K, 5000 kPa, x1 = 0.0196 | 794.49
342.9 K, 6000 kPa, x1 = 0.0196 | 795.52
342.9 K, 7000 kPa, x1 = 0.0196 | 796.52
342.9 K, 8000 kPa, x1 = 0.0196 | 797.53
342.9 K, 9000 kPa, x1 = 0.0196 | 798.53
342.9 K, 10000 kPa, x1 = 0.0196 | 799.52
342.9 K, 11000 kPa, x1 = 0.0196 | 800.49
342.9 K, 12000 kPa, x1 = 0.0196 | 801.46
342.9 K, 13000 kPa, x1 = 0.0196 | 802.42
342.9 K, 14000 kPa, x1 = 0.0196 | 803.37
342.9 K, 15000 kPa, x1 = 0.0196 | 804.3
342.9 K, 16000 kPa, x1 = 0.0196 | 805.22
342.9 K, 17000 kPa, x1 = 0.0196 | 806.13
342.9 K, 18000 kPa, x1 = 0.0196 | 807.03
342.9 K, 19000 kPa, x1 = 0.0196 | 807.91
342.9 K, 20000 kPa, x1 = 0.0196 | 808.78
342.92 K, 1000 kPa, x1 = 0.0012 | 748.44
342.92 K, 1000 kPa, x1 = 0.0074 | 761.5
342.92 K, 2000 kPa, x1 = 0.0012 | 749.56
342.92 K, 2000 kPa, x1 = 0.0074 | 762.58
342.92 K, 3000 kPa, x1 = 0.0012 | 750.65
342.92 K, 3000 kPa, x1 = 0.0074 | 763.66
342.92 K, 4000 kPa, x1 = 0.0012 | 751.76
342.92 K, 4000 kPa, x1 = 0.0074 | 764.73
342.92 K, 5000 kPa, x1 = 0.0012 | 752.85
342.92 K, 5000 kPa, x1 = 0.0074 | 765.81
342.92 K, 6000 kPa, x1 = 0.0012 | 753.94
342.92 K, 6000 kPa, x1 = 0.0074 | 766.87
342.92 K, 7000 kPa, x1 = 0.0012 | 755.02
342.92 K, 7000 kPa, x1 = 0.0074 | 767.93
342.92 K, 8000 kPa, x1 = 0.0012 | 756.1
342.92 K, 8000 kPa, x1 = 0.0074 | 768.98
342.92 K, 9000 kPa, x1 = 0.0012 | 757.16
342.92 K, 9000 kPa, x1 = 0.0074 | 770.04
342.92 K, 10000 kPa, x1 = 0.0012 | 758.21
342.92 K, 10000 kPa, x1 = 0.0074 | 771.07
342.92 K, 11000 kPa, x1 = 0.0012 | 759.27
342.92 K, 11000 kPa, x1 = 0.0074 | 772.09
342.92 K, 12000 kPa, x1 = 0.0012 | 760.3
342.92 K, 12000 kPa, x1 = 0.0074 | 773.12
342.92 K, 13000 kPa, x1 = 0.0012 | 761.33
342.92 K, 13000 kPa, x1 = 0.0074 | 774.1
342.92 K, 14000 kPa, x1 = 0.0012 | 762.33
342.92 K, 14000 kPa, x1 = 0.0074 | 775.1
342.92 K, 15000 kPa, x1 = 0.0012 | 763.33
342.92 K, 15000 kPa, x1 = 0.0074 | 776.07
342.92 K, 16000 kPa, x1 = 0.0012 | 764.31
342.92 K, 16000 kPa, x1 = 0.0074 | 777.04
342.92 K, 17000 kPa, x1 = 0.0012 | 765.26
342.92 K, 17000 kPa, x1 = 0.0074 | 777.98
342.92 K, 18000 kPa, x1 = 0.0012 | 766.22
342.92 K, 18000 kPa, x1 = 0.0074 | 778.92
342.92 K, 19000 kPa, x1 = 0.0012 | 767.14
342.92 K, 19000 kPa, x1 = 0.0074 | 779.83
342.92 K, 20000 kPa, x1 = 0.0012 | 768.07
342.92 K, 20000 kPa, x1 = 0.0074 | 780.71
343.02 K, 1000 kPa, x1 = 0.0136 | 775.25
343.02 K, 2000 kPa, x1 = 0.0136 | 776.31
343.02 K, 3000 kPa, x1 = 0.0136 | 777.37
343.02 K, 4000 kPa, x1 = 0.0136 | 778.42
343.02 K, 5000 kPa, x1 = 0.0136 | 779.47
343.02 K, 6000 kPa, x1 = 0.0136 | 780.52
343.02 K, 7000 kPa, x1 = 0.0136 | 781.56
343.02 K, 8000 kPa, x1 = 0.0136 | 782.6
343.02 K, 9000 kPa, x1 = 0.0136 | 783.63
343.02 K, 10000 kPa, x1 = 0.0136 | 784.63
343.02 K, 11000 kPa, x1 = 0.0136 | 785.65
343.02 K, 12000 kPa, x1 = 0.0136 | 786.65
343.02 K, 13000 kPa, x1 = 0.0136 | 787.64
343.02 K, 14000 kPa, x1 = 0.0136 | 788.62
343.02 K, 15000 kPa, x1 = 0.0136 | 789.58
343.02 K, 16000 kPa, x1 = 0.0136 | 790.53
343.02 K, 17000 kPa, x1 = 0.0136 | 791.46
343.02 K, 18000 kPa, x1 = 0.0136 | 792.39
343.02 K, 19000 kPa, x1 = 0.0136 | 793.28
343.02 K, 20000 kPa, x1 = 0.0136 | 794.17
352.79 K, 1000 kPa, x1 = 0.0196 | 780.8
352.79 K, 2000 kPa, x1 = 0.0196 | 781.92
352.79 K, 3000 kPa, x1 = 0.0196 | 783.03
352.79 K, 4000 kPa, x1 = 0.0196 | 784.09
352.79 K, 5000 kPa, x1 = 0.0196 | 785.23
352.79 K, 6000 kPa, x1 = 0.0196 | 786.32
352.79 K, 7000 kPa, x1 = 0.0196 | 787.4
352.79 K, 8000 kPa, x1 = 0.0196 | 788.47
352.79 K, 9000 kPa, x1 = 0.0196 | 789.53
352.79 K, 10000 kPa, x1 = 0.0196 | 790.58
352.79 K, 11000 kPa, x1 = 0.0196 | 791.62
352.79 K, 12000 kPa, x1 = 0.0196 | 792.64
352.79 K, 13000 kPa, x1 = 0.0196 | 793.65
352.79 K, 14000 kPa, x1 = 0.0196 | 794.65
352.79 K, 15000 kPa, x1 = 0.0196 | 795.64
352.79 K, 16000 kPa, x1 = 0.0196 | 796.61
352.79 K, 17000 kPa, x1 = 0.0196 | 797.57
352.79 K, 18000 kPa, x1 = 0.0196 | 798.51
352.79 K, 19000 kPa, x1 = 0.0196 | 799.44
352.79 K, 20000 kPa, x1 = 0.0196 | 800.36
352.81 K, 1000 kPa, x1 = 0.0012 | 738.74
352.81 K, 1000 kPa, x1 = 0.0136 | 765.67
352.81 K, 2000 kPa, x1 = 0.0012 | 739.95
352.81 K, 2000 kPa, x1 = 0.0136 | 766.82
352.81 K, 3000 kPa, x1 = 0.0012 | 741.15
352.81 K, 3000 kPa, x1 = 0.0136 | 767.97
352.81 K, 4000 kPa, x1 = 0.0012 | 742.33
352.81 K, 4000 kPa, x1 = 0.0136 | 769.1
352.81 K, 5000 kPa, x1 = 0.0012 | 743.51
352.81 K, 5000 kPa, x1 = 0.0136 | 770.24
352.81 K, 6000 kPa, x1 = 0.0012 | 744.68
352.81 K, 6000 kPa, x1 = 0.0136 | 771.36
352.81 K, 7000 kPa, x1 = 0.0012 | 745.85
352.81 K, 7000 kPa, x1 = 0.0136 | 772.46
352.81 K, 8000 kPa, x1 = 0.0012 | 746.99
352.81 K, 8000 kPa, x1 = 0.0136 | 773.56
352.81 K, 9000 kPa, x1 = 0.0012 | 748.13
352.81 K, 9000 kPa, x1 = 0.0136 | 774.65
352.81 K, 10000 kPa, x1 = 0.0012 | 749.26
352.81 K, 10000 kPa, x1 = 0.0136 | 775.73
352.81 K, 11000 kPa, x1 = 0.0012 | 750.37
352.81 K, 11000 kPa, x1 = 0.0136 | 776.81
352.81 K, 12000 kPa, x1 = 0.0012 | 751.47
352.81 K, 12000 kPa, x1 = 0.0136 | 777.86
352.81 K, 13000 kPa, x1 = 0.0012 | 752.55
352.81 K, 13000 kPa, x1 = 0.0136 | 778.9
352.81 K, 14000 kPa, x1 = 0.0012 | 753.61
352.81 K, 14000 kPa, x1 = 0.0136 | 779.93
352.81 K, 15000 kPa, x1 = 0.0012 | 754.67
352.81 K, 15000 kPa, x1 = 0.0136 | 780.95
